Measured values from PubChem BioAssay AID2060908 (Molecular Pharmacology Branch, DTP, NCI, 2025).

System: 186277-243-T-J2-PDC complex spheroids, viability
Test: Anticancer human tumor 186277-243-T-J2-PDC patient-derived colon adenocarcinoma cell line growth inhibition [RAS]
Details: for IC50: curve of first compound; for viability, T/C: stronger effect = lower value
From the text: RAS pathway inhibitors in Combinations in Complex Spheroids
A high-throughput screen of multi-cell type tumor spheroids was designed to identify active combinations of RAS pathway inhibitors and targeted small molecules. Complex spheroids include a stromal component modeled by human endothelial cells (HUVEC) and fibroblasts modeled by human mesenchymal stem cells (MSCs). The concentration ranges selected for each drug and investigational agent were based upon clinically achievable concentrations if the clinical Cmax of the agent was known.
Compounds. The drugs and investigational agents: abemaciclib (NSC768073), cobimetinib (NSC768068), divarasib (GDC6063, NSC841802), docetaxel (NSC628503), GDC-1971 (RLY-1971, NSC841576), gemcitabine (NSC613327), inavolisib (NSC800729), ipatasertib (NSC767898), KB-0742 (NSC834161), MRTX-1133 (NSC836407), osimertinib (NSC779217), RMC-4630 (NSC839698), RMC-6236 (NSC851965), RMC-6291 (NSC852671), Ro-3306 (NSC812927), sapanisertib (NSC764658), SN-38 (NSC673596), staurosporine (NSC755774), SY5609 (NSC837396), and tovorafenib (DAY101, NSC766906), were obtained from the National Cancer Institute (NCI) Developmental Therapeutics Program Chemical Repository. The FDA-approved anticancer drug set is available from the NCI Developmental Therapeutics Program. […] The stock solutions were prepared in dimethyl sulfoxide (DMSO, Sigma-Aldrich, St. Louis, MO, cat. D2650) at 800-fold the tested concentration and stored at -70 degrees C prior to their use. All drugs and investigational agents were tested over a range starting from a high concentration at or near the clinical Cmax and decreasing in half-log increments. If the clinical Cmax for an agent had not been determined, the highest concentration tested was 10 microM.
Cell Culture. All cells were maintained in an incubator at 37 degrees C and 5% CO2 with 95% humidity. The PDC lines were cultured according to standard operating procedures established by the NCI PDMR. All PDCs were thawed and cultured in Matrigel-coated flasks prepared with a working solution of 1X Ham's F-12 nutrient mix, without supplementation (Invitrogen, Waltham, MA, cat. 11765054), 100 U/mL penicillin-streptomycin (Invitrogen, cat. 15140122), and 2.5% Matrigel (Corning Inc., Corning, NY, cat. 354248) for the first three passages. The 362531-283-R-J2-PDC and 782815-120-R-J1-PDC lines were cultured in 6C/Colon 1B media, which includes advanced DMEM/F-12 (Thermo Fisher Scientific, cat. 12634028), 10 mM HEPES (Thermo Fisher Scientific, cat. 15630080), 1X GlutaMAX supplement (Thermo Fisher Scientific, cat. 35050061), 0.1 mg/mL primocin (InvivoGen, San Diego, CA, cat. ant-pm-2), 10% defined fetal bovine serum, heat inactivated (HyClone Laboratories Inc., Logan, UT, cat. SH30070.03HI), 50% L-WRN conditioned media (ATCC, cat. CRL-3276), 1.25 mM N-Acetyl-L-cysteine (Sigma-Aldrich, cat. A9165), 10 mM nicotinamide (Sigma-Aldrich, cat. N0636), 1X B-27 supplement (Thermo Fisher Scientific, cat. 17504044), 1X N-2 supplement (Thermo Fisher Scientific, cat. 17502048), 50 ng/mL human EGF (Thermo Fisher Scientific, cat. PHG0311), and 10 microM Y-27632 dihydrochloride (Tocris Bioscience, cat. 1254). The K12877-001-R-J1-PDC line was cultured in 6I media, which includes all 6C/Colon 1B media plus 10 ng/mL human FGF-10 (PeproTech, cat. 100-26), 1 ng/mL human FGF-2 (PeproTech, cat. 100-18B), 1 µM prostaglandin E2 (Tocris Bioscience, cat. 2296), […] hydrocortisone (Sigma-Aldrich, cat. H4001), and […] bovine insulin (Sigma-Aldrich, cat. I6634). The K86415-001-R-J1-PDC line was cultured in 6D media, which includes all 6C/Colon 1B media components minus the L-WRN conditioned media. The 485176-168-R4-J1-PDC was cultured in PANC media, which includes all 6C/Colon 1B media plus 100 ng/mL human FGF-10 (PeproTech, cat. 100-26), 500 nM SB-431542 (Selleckchem, cat. S1067), and 10 nM gastrin (Tocris Bioscience, cat. 3006). […]
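Note: spheroids exposed to compounds for 7 days before viability read.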

CCc1c2c(nc3ccc(O)cc13)-c1cc3c(c(=O)n1C2)COC(=O)[C@]3(O)CC + CCn1c(-c2cc(N3CCN(C)CC3)cnc2C(C)OC)c2c3cc(ccc31)-c1csc(n1)CC(NC(=O)C1CC1C)C(=O)N1CCCC(N1)C(=O)OCC(C)(C)C2
IC50 (second compound 0.000949 µM): 5.27 nM | IC50 (second compound 0.003 µM): 1.96 nM | IC50 (second compound 0.00949 µM): < 0.949 nM | IC50 (second compound 0.03 µM): < 0.949 nM | IC50 (second compound 0.0949 µM): < 0.949 nM | IC50 (second compound 0.3 µM): < 0.949 nM | viability, T/C (second compound 0.000949 µM, first compound 0.000949 µM): 113% | viability, T/C (second compound 0.000949 µM, first compound 0.003 µM): 58.7% | viability, T/C (second compound 0.000949 µM, first compound 0.00949 µM): 39.5% | viability, T/C (second compound 0.000949 µM, first compound 0.03 µM): 23.4% | viability, T/C (second compound 0.000949 µM, first compound 0.0949 µM): 9.6% | viability, T/C (second compound 0.000949 µM, first compound 0.3 µM): 6.83% | viability, T/C (second compound 0.003 µM, first compound 0.000949 µM): 69.5% | viability, T/C (second compound 0.003 µM, first compound 0.003 µM): 37.6% | viability, T/C (second compound 0.003 µM, first compound 0.00949 µM): 22.2% | viability, T/C (second compound 0.003 µM, first compound 0.03 µM): 13.2% | viability, T/C (second compound 0.003 µM, first compound 0.0949 µM): 5.72% | viability, T/C (second compound 0.003 µM, first compound 0.3 µM): 4.11% | viability, T/C (second compound 0.00949 µM, first compound 0.000949 µM): 18.6% | viability, T/C (second compound 0.00949 µM, first compound 0.003 µM): 10.9% | viability, T/C (second compound 0.00949 µM, first compound 0.00949 µM): 9.28% | viability, T/C (second compound 0.00949 µM, first compound 0.03 µM): 6.45% | viability, T/C (second compound 0.00949 µM, first compound 0.0949 µM): 3.6% | viability, T/C (second compound 0.00949 µM, first compound 0.3 µM): 2.17% | viability, T/C (second compound 0.03 µM, first compound 0.000949 µM): 9.49% | viability, T/C (second compound 0.03 µM, first compound 0.003 µM): 6.27% | viability, T/C (second compound 0.03 µM, first compound 0.00949 µM): 5.72% | viability, T/C (second compound 0.03 µM, first compound 0.03 µM): 4.05% | viability, T/C (second compound 0.03 µM, first compound 0.0949 µM): 2.52% | viability, T/C (second compound 0.03 µM, first compound 0.3 µM): 1.56% | viability, T/C (second compound 0.0949 µM, first compound 0.000949 µM): 5.21% | viability, T/C (second compound 0.0949 µM, first compound 0.003 µM): 4.44% | viability, T/C (second compound 0.0949 µM, first compound 0.00949 µM): 4.37% | viability, T/C (second compound 0.0949 µM, first compound 0.03 µM): 2.94% | viability, T/C (second compound 0.0949 µM, first compound 0.0949 µM): 2.29% | viability, T/C (second compound 0.0949 µM, first compound 0.3 µM): 1.3% | viability, T/C (second compound 0.3 µM, first compound 0.000949 µM): 4.39% | viability, T/C (second compound 0.3 µM, first compound 0.003 µM): 3.92% | viability, T/C (second compound 0.3 µM, first compound 0.00949 µM): 3.85% | viability, T/C (second compound 0.3 µM, first compound 0.03 µM): 2.91% | viability, T/C (second compound 0.3 µM, first compound 0.0949 µM): 2.37% | viability, T/C (second compound 0.3 µM, first compound 0.3 µM): 1.27%

C=CC(=O)Nc1cc(Nc2nccc(-c3cn(C)c4ccccc34)n2)c(OC)cc1N(C)CCN(C)C + C=CC(=O)N1CCN(c2nc(OCC3CCCN3C)nc3c(F)c(-c4nc(N)cc(C)c4C(F)(F)F)c(Cl)cc23)C(C)C1
IC50 (second compound 0.00316 µM): > 1000 nM | IC50 (second compound 0.01 µM): > 1000 nM | IC50 (second compound 0.0316 µM): > 1000 nM | IC50 (second compound 0.1 µM): > 1000 nM | IC50 (second compound 0.316 µM): > 1000 nM | IC50 (second compound 1 µM): > 1000 nM | viability, T/C (second compound 0.00316 µM, first compound 0.00316 µM): 82.3% | viability, T/C (second compound 0.00316 µM, first compound 0.01 µM): 89.4% | viability, T/C (second compound 0.00316 µM, first compound 0.0316 µM): 89.8% | viability, T/C (second compound 0.00316 µM, first compound 0.1 µM): 80.5% | viability, T/C (second compound 0.00316 µM, first compound 0.316 µM): 97.4% | viability, T/C (second compound 0.00316 µM, first compound 1 µM): 110% | viability, T/C (second compound 0.01 µM, first compound 0.00316 µM): 96.1% | viability, T/C (second compound 0.01 µM, first compound 0.01 µM): 88.2% | viability, T/C (second compound 0.01 µM, first compound 0.0316 µM): 89.8% | viability, T/C (second compound 0.01 µM, first compound 0.1 µM): 94% | viability, T/C (second compound 0.01 µM, first compound 0.316 µM): 107% | viability, T/C (second compound 0.01 µM, first compound 1 µM): 77.3% | viability, T/C (second compound 0.0316 µM, first compound 0.00316 µM): 84.8% | viability, T/C (second compound 0.0316 µM, first compound 0.01 µM): 91.6% | viability, T/C (second compound 0.0316 µM, first compound 0.0316 µM): 93.2% | viability, T/C (second compound 0.0316 µM, first compound 0.1 µM): 96.1% | viability, T/C (second compound 0.0316 µM, first compound 0.316 µM): 99.1% | viability, T/C (second compound 0.0316 µM, first compound 1 µM): 97% | viability, T/C (second compound 0.1 µM, first compound 0.00316 µM): 89.6% | viability, T/C (second compound 0.1 µM, first compound 0.01 µM): 85% | viability, T/C (second compound 0.1 µM, first compound 0.0316 µM): 79.5% | viability, T/C (second compound 0.1 µM, first compound 0.1 µM): 109% | viability, T/C (second compound 0.1 µM, first compound 0.316 µM): 126% | viability, T/C (second compound 0.1 µM, first compound 1 µM): 86.8% | viability, T/C (second compound 0.316 µM, first compound 0.00316 µM): 89.4% | viability, T/C (second compound 0.316 µM, first compound 0.01 µM): 94.3% | viability, T/C (second compound 0.316 µM, first compound 0.0316 µM): 103% | viability, T/C (second compound 0.316 µM, first compound 0.1 µM): 86.5% | viability, T/C (second compound 0.316 µM, first compound 0.316 µM): 130% | viability, T/C (second compound 0.316 µM, first compound 1 µM): 98.9% | viability, T/C (second compound 1 µM, first compound 0.00316 µM): 109% | viability, T/C (second compound 1 µM, first compound 0.01 µM): 78.8% | viability, T/C (second compound 1 µM, first compound 0.0316 µM): 91.9% | viability, T/C (second compound 1 µM, first compound 0.1 µM): 104% | viability, T/C (second compound 1 µM, first compound 0.316 µM): 82.1% | viability, T/C (second compound 1 µM, first compound 1 µM): 81.2%
